Data published in PMC4315423 (Journal of Medicinal Chemistry, 2014).
In brackets after ≈: the same amount, converted by molar mass.

Assays:
[1] = aqueous kinetic solubility; format: physicochemical; conditions: PBS aqueous buffer
[2] = in vivo pharmacokinetics, plasma and brain, single ip dose in male C57BL/6 mice; design: species or system mouse; conditions: ip 30 mg/kg

solubility kinetic [1]: 46.5 µg/mL (≈ 113 µM)
time to reach brain Cmax ([2]; brain, C57BL/6 mice): ≤ 15 min
behavioural observation after dosing ([2]; male C57BL/6 mice, at 5 min after dosing, lasted for about 2 h): appeared less active
Structure (SMILES): CN1C(=O)c2ccccc2[S@+]([O-])c2ccc(C(=O)NCCc3cccs3)cc21 [compound 65, 10-Methyl-11-oxo-N-(2-(thiophen-2-yl)ethyl)-10,11-dihydrodibenzo[b,f][1,4]thiazepine-8-carboxamide 5-(S)-Oxide]
